Experimental data published in ChEMBL document CHEMBL4393687, “Multi-targeted ChEI-copper chelating molecules as neuroprotective agents” (Eur J Med Chem, 2019).
Active and inactive are the calls of the source. No cut-off for these calls is given here.

Tests used:
[1] = Antioxidant activity assessed as DPPH free radical scavenging activity at 10 uM after 30 mins incubation in dark by UV-Visible spectrophotometric analysis relative to control; assay type: functional
[2] = Cytotoxicity against mouse HT22 cells assessed as cell viability at 30 uM after 24 hrs by MTT assay relative to control; assay type: cell-based, HT-22; details: read-out: Activity
[3] = Cytotoxicity against mouse HT22 cells assessed as cell viability at 100 uM after 24 hrs by MTT assay relative to control; assay type: cell-based, HT-22; details: read-out: Activity
[4] = target: Acetylcholinesterase (Electrophorus electricus) (UniProt O42275); experiment: Inhibition of electric eel AChE at 50 nM using acetylthiocholine iodide as substrate preincubated for 60 mins followed by substrate addition measured for 5 mins by Ellman's method
[5] = target: Cholinesterase (Equus caballus) (UniProt P81908); experiment: Inhibition of equine serum BChE at 50 nM using acetylthiocholine iodide as substrate preincubated for 60 mins followed by substrate addition measured for 5 mins by Ellman's method
[6] = Antioxidant activity assessed as DPPH free radical scavenging activity after 30 mins incubation in dark by UV-Visible spectrophotometric analysis; assay type: functional
[7] = Metal chelating activity assessed as compound-Cu2+ complex formation by measuring shift in maximum absorption at 10 uM after 30 mins by UV-vis spectrophotometric analysis
[8] = Metal chelating activity assessed as compound-Cu2+ complex formation at 1:1 ratio of test compound to CuCl2 incubated for 30 mins by UV-vis spectrophotometric analysis
[9] = Metal chelating activity assessed as compound-Cu2+ complex formation at 1:2 ratio of test compound to CuCl2 incubated for 30 mins by UV-vis spectrophotometric analysis
HT-22 = experiment: Neuroprotective activity against glutamate-induced neuronal damage in mouse HT22 cells at 3 to 30 uM pretreated for 30 mins followed by glutamate challenge measured after 24 hrs by MTT assay; assay type: functional, cell-based

Sequence of Cholinesterase (Equus caballus) (P81908 whole entry): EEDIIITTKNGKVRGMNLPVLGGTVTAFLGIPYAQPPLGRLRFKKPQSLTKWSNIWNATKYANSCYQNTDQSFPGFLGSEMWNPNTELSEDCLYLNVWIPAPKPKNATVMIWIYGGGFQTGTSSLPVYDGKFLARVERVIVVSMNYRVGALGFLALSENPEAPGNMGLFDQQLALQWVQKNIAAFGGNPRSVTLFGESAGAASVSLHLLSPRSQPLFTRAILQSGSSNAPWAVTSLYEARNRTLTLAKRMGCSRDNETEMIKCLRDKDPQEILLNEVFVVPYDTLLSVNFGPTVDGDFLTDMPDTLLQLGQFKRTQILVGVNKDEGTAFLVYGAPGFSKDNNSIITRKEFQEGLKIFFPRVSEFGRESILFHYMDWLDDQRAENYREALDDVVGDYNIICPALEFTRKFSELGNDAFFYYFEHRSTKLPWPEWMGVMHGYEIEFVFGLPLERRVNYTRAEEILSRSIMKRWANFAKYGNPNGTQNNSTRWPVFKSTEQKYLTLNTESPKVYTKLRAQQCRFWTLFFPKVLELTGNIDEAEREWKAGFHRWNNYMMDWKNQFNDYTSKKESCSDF
Sequence of Acetylcholinesterase (Electrophorus electricus) (O42275 24-633 limits assumed): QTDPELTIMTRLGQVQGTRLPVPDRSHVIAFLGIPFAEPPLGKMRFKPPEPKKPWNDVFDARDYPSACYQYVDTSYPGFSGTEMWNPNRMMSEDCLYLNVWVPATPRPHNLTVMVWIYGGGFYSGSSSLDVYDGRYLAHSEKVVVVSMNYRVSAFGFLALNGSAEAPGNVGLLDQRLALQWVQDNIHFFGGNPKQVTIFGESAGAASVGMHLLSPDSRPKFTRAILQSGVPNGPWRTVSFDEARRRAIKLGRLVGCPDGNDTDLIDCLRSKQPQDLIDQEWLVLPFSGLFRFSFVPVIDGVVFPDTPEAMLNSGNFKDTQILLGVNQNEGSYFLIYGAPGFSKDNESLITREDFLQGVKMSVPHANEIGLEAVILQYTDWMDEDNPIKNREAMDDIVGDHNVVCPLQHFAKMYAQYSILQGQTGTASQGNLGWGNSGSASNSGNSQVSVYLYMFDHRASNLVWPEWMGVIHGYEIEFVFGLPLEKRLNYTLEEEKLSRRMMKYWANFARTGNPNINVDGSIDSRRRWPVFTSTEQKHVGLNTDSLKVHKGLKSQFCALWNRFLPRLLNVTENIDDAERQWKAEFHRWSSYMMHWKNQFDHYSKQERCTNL

Q: With CCN(C)C(=O)Nc1cccc(NC(=O)c2cccnc2O)c1 as the compound, how does the Activity [1] read?
A: 3.62%

Q: What about the viability at 24 h, 30 µM [2] of the same compound?
A: 97.2%

Q: What about the viability at 24 h, 100 µM [3] of the same compound?
A: 96.1%

Q: Which results are given for CCN(C)C(=O)Oc1cccc(NC(=O)c2cccnc2O)c1?
A: inhibition [4]: 1.87%; inhibition [5]: 73.6%; Activity [1]: 4.18%; viability at 24 h, 30 µM [2]: 102%; viability at 24 h, 100 µM [3]: 98.6%

Q: For CCN(C)C(=O)Oc1cccc(CCNCc2ccccc2O)c1, which inhibition [4] is on record?
A: 3.58%

Q: What about the inhibition [5] of the same compound?
A: 34.5%

Q: And the Activity [1]?
A: 15.5%

Q: Which inhibition [4] does the source give for CCN(C)C(=O)Oc1cccc(CCNC(=O)c2cccnc2O)c1 here?
A: 5.43%

Q: And the inhibition [5]?
A: 53.7%

Q: And the Activity [1]?
A: 2.21%

Q: What about the viability at 24 h, 30 µM [2] of the same compound?
A: 106%

Q: And the viability at 24 h, 100 µM [3]?
A: 99.4%

Q: For Cc1c(C)c2c(c(C)c1O)CCC(C)(C(=O)O)O2 (configuration not stated) [TROLOX], which Activity [1] is on record?
A: 24.3%

Q: What about the IC50 [6] of the same compound?
A: 23.5 µM

Q: With CCN(C)C(=O)Oc1cccc(CNCc2ccccc2O)c1 as the compound, how does the inhibition [4] read?
A: 4.06%

Q: What about the inhibition [5] of the same compound?
A: 30.5%

Q: What about the Activity [1] of the same compound?
A: 17.7%

Q: And the viability at 24 h, 30 µM [2]?
A: 96.6%

Q: What about the viability at 24 h, 100 µM [3] of the same compound?
A: 90.3%

Q: With CCC(CC)CNc1ccc(O)c(CNc2cccc(OC(=O)N(C)CC)c2)c1 as the compound, how does the inhibition [4] read?
A: 9.01%

Q: What about the inhibition [5] of the same compound?
A: 64.2%

Q: What about the IC50 [6] of the same compound?
A: 26.5 µM

Q: And the Activity [7]?
A: 50 nm

Q: What about the Activity [8] of the same compound?
A: Active

Q: What about the Activity [9] of the same compound?
A: Active

Q: And the viability at 24 h, 30 µM [2]?
A: 85.8%

Q: What about the viability at 24 h, 100 µM [3] of the same compound?
A: 25.2%

Q: And the Activity (HT-22)?
A: Active

Q: Which results are given for CCN(C)C(=O)Oc1cccc(NCc2ccccn2)c1?
A: inhibition [4]: 8.51%; inhibition [5]: 58.9%; Activity [1]: 7.4%; viability at 24 h, 30 µM [2]: 91.3%; viability at 24 h, 100 µM [3]: 80.5%

Q: For CCN(C)C(=O)Oc1cccc(NCc2ccccc2O)c1, which inhibition [4] is on record?
A: 8.13%

Q: What about the inhibition [5] of the same compound?
A: 38.5%

Q: And the Activity [1]?
A: 13.8%

Q: What about the viability at 24 h, 30 µM [2] of the same compound?
A: 103%

Q: And the viability at 24 h, 100 µM [3]?
A: 80.3%

Q: For CCN(C)C(=O)Oc1cccc(CNC(=O)c2cccnc2O)c1, which inhibition [4] is on record?
A: 7.59%

Q: What about the inhibition [5] of the same compound?
A: 46.5%

Q: What about the Activity [1] of the same compound?
A: 2.21%

Q: And the viability at 24 h, 30 µM [2]?
A: 101%

Q: What about the viability at 24 h, 100 µM [3] of the same compound?
A: 82.5%

Q: Which inhibition [4] does the source give for CCN(C)C(=O)Oc1cccc([C@H](C)N(C)C)c1 here?
A: 2.59%

Q: And the inhibition [5]?
A: 54.7%

Q: For CCC(CC)CNc1ccc(O)c(CNCCc2cccc(OC(=O)N(C)CC)c2)c1, which inhibition [4] is on record?
A: 3.36%

Q: And the inhibition [5]?
A: 14.2%

Q: What about the IC50 [6] of the same compound?
A: 28.7 µM
